In test [1] the target is T1, DCAF16 (Homo sapiens, UniProt O60885+Q9NXF7).
T1 construct: full length, in complex with DDB1ΔB; with BRD4 BD2 (template), DDB1ΔB
Put plainly: intact protein MS ([…] adduct alone, […] with BRD4BD2; none with C58S); TR-FRET. In kind it is binding.

The target of test [2] is T1, DCAF16. Description: intact protein MS; TR-FRET. In kind it is binding. (In TR-FRET formats the signal depends on donor and acceptor labels being close together.)

These results are taken from publication PMC11582070, “Template-assisted covalent modification underlies activity of covalent molecular glues” (Nature Chemical Biology, 2023).

Regarding `Cc1sc2c(c1C)C(c1ccc(/C=C/C=O)cc1)=N[C@@H](CC(=O)OC(C)(C)C)c1nnc(C)n1-2` [compound 2, TMX1], at DCAF16 [1], the “intact protein MS (8% adduct alone, 50% with BRD4BD2; none with C58S); TR-FRET” value is “By intact mass spectrometry, the DCAF16 C58S mutant completely eliminated DCAF16–TMX1 adduct formation”. For the molecule `C=CC(=O)Nc1ccc(C2=N[C@@H](CC(=O)OC(C)(C)C)c3nnc(C)n3-c3sc(C)c(C)c32)cc1` [compound 3, MMH1], the “intact protein MS; TR-FRET” value on DCAF16 [2] was “DCAF16 intact mass spectrometry experiments on MMH1 and MMH2 and found similar template-assisted covalent modifications”.
